# Results from patent publication US20130150340A1, “6-(4-Hydroxy-phenyl)-1H-pyrazolo[3,4-b]pyridine-4-carboxylic acid amide derivatives as kinase inhibitors” (SANOFI, priority 2011, published 2013).
# Biological target: T1, human full-length recombinant PKC βII (Homo sapiens, UniProt P05771)
# T1 construct: Active human full-length recombinant PKC βII; purchased Invitrogen GmbH, Darmstadt, Germany
# Assay: Determination of PKC βII inhibition (Caliper mobility-shift kinase assay)
# Format: biochemical
# Conditions: example compounds at a final concentration of 1.14 μM (±0.15 μM); 60 min incubation at 32° C.
# Description: Determination of PKC 3H Inhibition
# PKC βII inhibition was determined according to the following protocol:
# Active human full-length recombinant PKC βII and the peptide substrate, Fluorescein-RFARKGSLRQKNV, were purchased from Invitrogen GmbH, Darmstadt, Germany. Adenosine-5′-triphosphate (ATP), bovine serum albumine (BSA), dimethylsulphoxide (DMSO), 4-(2-hydroxyethyl)piperazine-1-ethanesulfonic acid (Hepes), Triton X-100, 1,2-Dioleoyl-sn-glycerol (DAG), L-α-Phosphatidyl-L-serine (PS), calcium chloride (CaCl2), and Pluronic F-68 were purchased from Sigma-Aldrich, Munich, Germany. Magnesium chloride, 1 M sodium hydroxide solution, 1M hydrochloric acid solution and EDTA were obtained from Merck Biosciences, Darmstadt, Germany.
# Test compounds were diluted to three times the test concentration in buffer 1 (30 mM Hepes-NaOH, pH 7.4, 0.01% Pluronic F-68 and 3% (v/v) DMSO). The PKC βII enzyme was diluted to a concentration of 30 ng/ml in buffer 2 (30 mM Hepes-NaOH, pH 7.4, 15 mM MgCl2, 150 μM CaCl2, 150 μg/ml PS, 60 μg/ml DAG, and 0.045% (w/v) Triton X-100). The peptide substrate and ATP were diluted to concentrations of 3 μM and 120 μM, respectively, in buffer 2. Two μl of the compound solution were mixed with 2 μl of the diluted enzyme in a 384-well small volume microtiter plate (Greiner, Bio-One, Frickenhausen, Germany), and the kinase reaction was initiated by addition of 2 μl of the solution containing peptide substrate and ATP. After 60 min incubation at 32° C., the reaction was stopped by addition of 20 μl of a solution containing 130 mM Hepes-NaOH, pH 7.4, 0.0195% (v/v) Brij-35, 6.5 mM EDTA, 0.13% chip coating reagent 3 (Caliper Lifescience Inc, Hopkinton, Mass.) and 6.5% (v/v) DMSO. Phosphorylation of the substrate peptide was then detected on a Caliper 3000 instrument essentially as described by Pommereau et al (J. Biomol. Screening 2004, 9(5), […]), Separation conditions were as follows: Pressure −0.8 psi, upstream voltage −3000 V, downstream voltage −800 V. Positive controls (buffer 1 instead of compound) and negative controls (buffer 1 instead of compound and buffer 2 instead of kinase solution) were run in parallel on each plate. Fractional turnover (R) was determined as the height of the peak of the phosphorylated peptide product divided by the sum of the unphosphorylated substrate and phosphorylated product peak heights. Percent-inhibition values for the test compounds were determined using the formula
# % Inhibition=100*(1−(Rcompound−Rnegative control)/(Rpositive control−Rnegative control).
# T1 sequence (P05771 1-673 isoform P05771-2): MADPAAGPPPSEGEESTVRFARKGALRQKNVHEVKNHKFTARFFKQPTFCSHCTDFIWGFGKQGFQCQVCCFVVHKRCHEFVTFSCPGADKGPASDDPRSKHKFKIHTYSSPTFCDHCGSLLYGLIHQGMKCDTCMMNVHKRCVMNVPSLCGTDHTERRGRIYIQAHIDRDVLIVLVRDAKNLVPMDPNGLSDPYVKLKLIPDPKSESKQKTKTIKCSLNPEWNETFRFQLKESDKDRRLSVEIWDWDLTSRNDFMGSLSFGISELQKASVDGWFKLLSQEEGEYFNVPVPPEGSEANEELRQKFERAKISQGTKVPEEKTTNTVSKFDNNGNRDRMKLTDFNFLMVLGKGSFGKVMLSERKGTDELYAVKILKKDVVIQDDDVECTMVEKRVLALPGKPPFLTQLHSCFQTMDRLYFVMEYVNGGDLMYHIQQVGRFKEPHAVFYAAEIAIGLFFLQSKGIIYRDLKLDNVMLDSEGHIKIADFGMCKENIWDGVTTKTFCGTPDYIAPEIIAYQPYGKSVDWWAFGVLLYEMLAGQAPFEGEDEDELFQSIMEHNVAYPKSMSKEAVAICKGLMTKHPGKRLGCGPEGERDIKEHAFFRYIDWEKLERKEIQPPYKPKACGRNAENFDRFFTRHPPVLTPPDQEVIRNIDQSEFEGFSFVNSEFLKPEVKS
row,Structure (SMILES),inhibition at 1.14 µM [%]
1,"O=C(c1cc(-c2ccc(O)cc2)nc2[nH]ncc12)N1CCC2(CCCNC2)C1 (stereo not drawn) [Example 23, (2,7-Diaza-spiro[4.5]dec-2-yl)-[6-(4-hydroxy-phenyl)-1H-pyrazolo[3,4-b]pyridin-4-yl]-methanone]",52
2,"O=C(c1cc(-c2ccc(O)cc2)nc2[nH]ncc12)N1CCCC2(CNCCO2)C1 (stereo not drawn) [Example 28, [6-(4-Hydroxy-phenyl)-1H-pyrazolo[3,4-b]pyridin-4-yl]-(1-oxa-4,8-diaza-spiro[5.5]undec-8-yl)-methanone]",15
3,"O=C(c1cc(-c2ccc(O)cc2)nc2[nH]ncc12)N1CCC2(CCNCC2)C1 [Example 22, (2,8-Diaza-spiro[4.5]dec-2-yl)-[6-(4-hydroxy-phenyl)-1H-pyrazolo[3,4-b]pyridin-4-yl]-methanone]",42
4,"O=C(c1cc(-c2ccc(O)cc2)nc2[nH]ncc12)N1CCC2(CNCCO2)C1 (stereo not drawn) [Example 31, [6-(4-Hydroxy-phenyl)-1H-pyrazolo[3,4-b]pyridin-4-yl]-(6-oxa-2,9-diaza-spiro[4.5]dec-2-yl)-methanone]",53
5,"CO[C@H]1CNC[C@@H]1NC(=O)c1cc(-c2ccc(O)cc2)nc2[nH]ncc12 (racemic) [Example 29, 6-(4-Hydroxy-phenyl)-1H-pyrazolo[3,4-b]pyridine-4-carboxylic acid (trans-4-methoxy-pyrrolidin-3-yl)-amide]",87
6,"O=C(N[C@H]1CN2CCC1CC2)c1cc(-c2ccc(O)cc2)nc2[nH]ncc12 [Example 18, 6-(4-Hydroxy-phenyl)-1H-pyrazolo[3,4-b]pyridine-4-carboxylic acid-(R)-(1-Aza-bicyclo[2.2.2]oct-3-yl)amide]",72
7,"N[C@H]1CC[C@H](CNC(=O)c2cc(-c3ccc(O)cc3)nc3[nH]ncc23)CC1 [Example 11, 6-(4-Hydroxy-phenyl)-1H-pyrazolo[3,4-b]pyridine-4-carboxylic acid (trans-4-amino-cyclohexylmethyl)-amide]",87
8,"O=C(c1cc(-c2ccc(O)cc2)nc2[nH]ncc12)N1CCCNCC1 [Example 7, [1,4]Diazepan-1-yl-[6-(4-hydroxy-phenyl)-1H-pyrazolo[3,4-b]pyridin-4-yl]-methanone]",84
9,"O=C(NC1CNC1)c1cc(-c2ccc(O)cc2)nc2[nH]ncc12 [Example 35, 6-(4-Hydroxy-phenyl)-1H-pyrazolo[3,4-b]pyridine-4-carboxylic acid azetidin-3-ylamide]",82
10,"O=C(c1cc(-c2ccc(O)cc2)nc2[nH]ncc12)N1CCC2(CC1)CNCCO2 [Example 26, [6-(4-Hydroxy-phenyl)-1H-pyrazolo[3,4-b]pyridin-4-yl]-(1-oxa-4,9-diaza-spiro[5.5]undec-9-yl)-methanone]",36
11,"N[C@H]1C[C@H](NC(=O)c2cc(-c3ccc(O)cc3)nc3[nH]ncc23)C1 [Example 30, 6-(4-Hydroxy-phenyl)-1H-pyrazolo[3,4-b]pyridine-4-carboxylic acid (trans-3-amino-cyclobutyl)-amide]",68
12,"O=C(c1cc(-c2ccc(O)cc2)nc2[nH]ncc12)N1CC2(CCNCC2)C1 [Example 20, (2,7-Diaza-spiro[3.5]non-2-yl)-[6-(4-hydroxy-phenyl)-1H-pyrazolo[3,4-b]pyridin-4-yl]-methanone]",77
13,"CC1(C)CNCCN1C(=O)c1cc(-c2ccc(O)cc2)nc2[nH]ncc12 [Example 10, (2,2-Dimethyl-piperazin-1-yl)-[6-(4-hydroxy-phenyl)-1H-pyrazolo[3,4-b]pyridin-4-yl]-methanone]",96
14,"N[C@H]1CC[C@@H](NC(=O)c2cc(-c3ccc(O)cc3)nc3[nH]ncc23)CC1 [Example 8, 6-(4-Hydroxy-phenyl)-1H-pyrazolo[3,4-b]pyridine-4-carboxylic acid (cis-4-amino-cyclohexyl)-amide]",46

# The remaining lines, values ahead:
row,inhibition at 1.14 µM [%],Structure (SMILES)
1,84,"O=C(NC1CCN(Cc2cccnc2)CC1)c1cc(-c2ccc(O)cc2)nc2[nH]ncc12 [Example 78, 6-(4-Hydroxy-phenyl)-1H-pyrazolo[3,4-b]pyridine-4-carboxylic acid (1-pyridin-3-ylmethyl-piperidin-4-yl)-amide]"
2,62,"CNC1CCN(C(=O)c2cc(-c3ccc(O)cc3)nc3[nH]ncc23)C1 (stereo not drawn) [Example 39, [6-(4-Hydroxy-phenyl)-1H-pyrazolo[3,4-b]pyridin-4-yl]-(3-methylamino-pyrrolidin-1-yl)-methanone]"
3,34,"CC1CCN(C2CCN(C(=O)c3cc(-c4ccc(O)cc4)nc4[nH]ncc34)C2)CC1 (stereo not drawn) [Example 65, [6-(4-Hydroxy-phenyl)-1H-pyrazolo[3,4-b]pyridin-4-yl]-[3-(4-methyl-piperidin-1-yl)-pyrrolidin-1-yl]-methanone]"
4,55,"N[C@H]1C[C@@H]1NC(=O)c1cc(-c2ccc(O)cc2)nc2[nH]ncc12 (racemic) [Example 51, 6-(4-Hydroxy-phenyl)-1H-pyrazolo[3,4-b]pyridine-4-carboxylic acid (trans-2-amino-cyclopropyl)-amide]"
5,27,"COCCN1CCN(C(=O)c2cc(-c3ccc(O)cc3)nc3[nH]ncc23)CC1 [Example 71, [6-(4-Hydroxy-phenyl)-1H-pyrazolo[3,4-b]pyridin-4-yl]-[4-(2-methoxy-ethyl)-piperazin-1-yl]-methanone]"
6,20,"O=C(c1cc(-c2ccc(O)cc2)nc2[nH]ncc12)N1CCC[C@H]1CN1CCCC1 [Example 54, [6-(4-Hydroxy-phenyl)-1H-pyrazolo[3,4-b]pyridin-4-yl]-((S)-2-pyrrolidin-1-ylmethyl-pyrrolidin-1-yl)-methanone]"
7,48,"CC(=O)N1CCCN(C(=O)c2cc(-c3ccc(O)cc3)nc3[nH]ncc23)CC1 [Example 59, 1-{4-[6-(4-Hydroxy-phenyl)-1H-pyrazolo[3,4-b]pyridine-4-carbonyl]-[1,4]diazepan-1-yl}-ethanone]"
8,97,"O=C(NC1CC2(CCNCC2)c2ccccc21)c1cc(-c2ccc(O)cc2)nc2[nH]ncc12 (stereo not drawn) [Example 50, 6-(4-hydroxy-phenyl)-1H-pyrazolo[3,4-b]pyridine-4-carboxylic acid (2,3-dihydrospiro[1H-indene-1,4′-piperidin]-3-yl)-amide]"
9,30,"CN1CCN(C(=O)c2cc(-c3ccc(O)cc3)nc3[nH]ncc23)CC1=O [Example 76, 4-[6-(4-Hydroxy-phenyl)-1H-pyrazolo[3,4-b]pyridine-4-carbonyl]-1-methyl-piperazin-2-one]"
10,23,"CC(C)N1CCN(C(=O)c2cc(-c3ccc(O)cc3)nc3[nH]ncc23)CC1 [Example 56, [6-(4-Hydroxy-phenyl)-1H-pyrazolo[3,4-b]pyridin-4-yl]-(4-isopropyl-piperazin-1-yl)-methanone]"
11,81,"O=C(c1cc(-c2ccc(O)cc2)nc2[nH]ncc12)N1CC2CC1CN2 (stereo not drawn) [Example 47, 2,5-Diaza-bicyclo[2.2.1]hept-2-yl-[6-(4-hydroxy-phenyl)-1H-pyrazolo[3,4-b]pyridin-4-yl]-methanone]"
12,28,O=C(c1cc(-c2ccc(O)cc2)nc2[nH]ncc12)N1CCC2(CC1)CNc1ccccc12 [Example 49]
13,45,"CCN1CCCN(C(=O)c2cc(-c3ccc(O)cc3)nc3[nH]ncc23)CC1 [Example 64, (4-Ethyl-[1,4]diazepan-1-yl)-[6-(4-hydroxy-phenyl)-1H-pyrazolo[3,4-b]pyridin-4-yl]-methanone]"
